# Entries after “also recorded” stand apart in the source; their conditions may differ. Where two headings read alike, the source gives them in different places. Non-standard residues stand in square brackets, D forms with d. Residues, ends and D or L forms follow the SMILES beside them. pS = N[C@@H](COP(=O)(O)O)C(=O)O
# Experiments:
# [1] = target: T1, recombinant full-length FMRP (isoform 1) (Homo sapiens, UniProt Q06787); experiment: In vitro intrinsic protein fluorescence binding assay; conditions: for Kd: 1 μM FMRP, pH 7.4, 20 °C; for change of fluorescence emission spectrum of FMRP (binding): 500–1000 μM peptide and 1 μM FMRP, 100 mM NaCl, 50 mM Na2PO4 pH 7.4, 2 mM DTT, 20 °C, excitation 287 nm; for co-operativity of binding to dimeric FMRP: fit of binding data to dimer models
# T1 construct: containing cDNA for full-length human FMRP; His-SUMO (N, cleaved yes); made in house; host or cells: Escherichia coli BL21 (DE3) Codon Plus
# Method: Small Ubiquitin-like Modifier (SUMO) fusion construct containing cDNA for full-length human FMRP was generated by gene synthesis (GenScript USA Inc.) and subcloned into a pET SUMO vector (Invitrogen). […] The pET SUMO–FMRP construct was transformed into Escherichia coli BL21 (DE3) Codon Plus cells and grown at 37 °C in Lennox broth medium. Protein expression was induced with 0.5 mM isopropyl-β-D-thiogalactopyranoside when optical density reached ~0.6, followed by 18 h of additional growth at 16 °C. Cells were harvested by centrifugation and pellets stored at −20 °C. In order to purify SUMO–FMRP, thawed pellets were resuspended in lysis buffer [50 mM Tris, pH 8.0, 500 mM NaCl, 20 mM imidazole, 10% glycerol, 250 mM arginine, 5 mM benzamidine, and 2 mM dithiothreitol (DTT)], supplemented with DNAse 1 and cOmplete™ Protease Inhibitor Cocktail (Sigma-Aldrich). After cell lysis and centrifugation, the filtered supernatant was loaded onto a 20 ml NiNTA column equilibrated in the same lysis buffer. The column was extensively washed with 20 column volumes (CV) of the same buffer supplemented with 100 mM imidazole. Elution of SUMO-fusion FMRP was performed using 100–500 mM imidazole gradient, and protein-containing fractions were combined and a 6× His tagged Ulp protease was added. Cleavage of the His-SUMO tag was performed overnight in a cold room (7 °C) while dialyzing in 4 L of 50 mM Tris, pH 8.0, 500 mM NaCl, 50 mM imidazole, 10% glycerol, 250 mM arginine, 5 mM benzamidine, and 2 mM DTT. Complete cleavage of the SUMO tag by Ulp was confirmed by SDS-PAGE and the protein of interest was separated from the Ulp protease and SUMO tag by passing the cleavage reaction over a second NiNTA column. Flow-through and wash fractions containing protein of interest were combined and then loaded onto a Superdex 200 gel filtration column pre-equilibrated with the same lysis buffer.
# The eluted purified proteins were analyzed by both SDS-PAGE and mass spectrometry, and the combined fractions were dialyzed three times in 5 L of Fluorescence Binding Buffer (100 mM NaCl, 50 mM Na2PO4 pH 7.4, 2 mM DTT). After filtering through a 0.22 μm GV Durapore Centrifugal Filter Unit (Millipore), FMRP concentration was determined by absorbance at 280 nm using a molar extinction coefficient of 48,360 M^−1 cm^−1, and the protein was used for binding studies with Kv1.2 C-terminal peptides.
# All measurements were carried out in the Fluorescence Binding Buffer at 20 °C using a PTI Quanta Master 80 Spectrofluorometer (HORIBA Scientific) by monitoring intrinsic protein fluorescence with an excitation wavelength of 287 nm. Prior to performing a binding titration for any of the peptides, a full emission spectrum (300–450 nm) of the peptide:FMRP complex was compared to that of apo-FMRP. Differences in the spectrum of the complex (500–1000 μM peptide and 1 μM FMRP) and apo-FMRP at the same concentration (i.e., fluorescence quenching, enhancement or shifts of the emission maximum) indicated binding. For each of these peptides, binding measurements were performed by adding aliquots of saturated 1 µM FMRP:peptide complex (titration solution) to 400 μL of 1 μM apo-FMRP solution as described by Wells and Di Cera. Briefly, at each titration step, a volume vD was removed from the cuvette containing the apo-FMRP and replaced by an equal volume of the titration solution (1 μM FMRP: 200–500 μM peptide complex). As a result, the concentration of FMRP (1 μM) and total volume of solution in the cuvette, V = 400 μL, remained constant while the concentration of the peptide at the ith titration step, [peptide]i, was increased, and given by
# [peptide]i = [peptide]0^i.D^i+[peptide]∞^i.(1 − D^i),
# where, [peptide]0 was the initial peptide concentration in the cuvette, [peptide]∞ was the peptide concentration in the titration solution, and D was the dilution factor, D = (V − vD)/V. […]
# [2] = system: PNs, WT and Fmr1-KO cerebellar slices; assay type: cell-based, mouse
# [3] = system: PNs, Fmr1-KO cerebellar slices; experiment: Spontaneous firing of PNs, cell-attached, Fmr1-KO; assay type: cell-based, mouse; conditions: 10 μM, co-applied with NBQX (10 μM); Fmr1-KO compared with WT
Compound,change of fluorescence emission spectrum of FMRP (binding) [1],co-operativity of binding to dimeric FMRP [1],"reduced χ2 of fit, model D1 [1]","χ2 of fit, model D1 [1]","reduced χ2 of fit, model D2i [1]","χ2 of fit, model D2i [1]",further results
CC[C@H](C)[C@H](NC(=O)[C@@H](NC(=O)[C@H](CO)NC(=O)[C@H](C)NC(=O)[C@H](CO)NC(=O)[C@H](CCCNC(=N)N)NC(=O)[C@H](CO)NC(=O)[C@H](CCCCN)NC(=O)[C@H](CCCCN)NC(=O)[C@H](CC(C)C)NC(=O)[C@H](CC(=O)O)NC(=O)[C@@H]1CCCN1C(=O)[C@H](COP(=O)(O)O)NC(=O)[C@H](COP(=O)(O)O)NC(=O)[C@@H]1CCCN1C(=O)[C@@H](NC(=O)[C@H](CCCCN)NC(=O)[C@@H]1CCCN1)[C@@H](C)CC)[C@@H](C)O)C(=O)N[C@@H](CO)C(=O)N[C@@H](CCCCN)C(=O)N[C@@H](CO)C(=O)N[C@@H](CC(=O)O)C(=O)O [PhosKv436-457] (H-PKIP[pS][pS]PDLKKSRSASTISKSD-OH),–,–,–,–,–,–,"Kd ([1]; model D1: dimer with one binding site, read-out: KD1, model D1): 10.1 ± 4.4 µM; Kd ([1]; model D2i: dimer with two independent binding sites, read-out: KD1, model D2i): 1.08 ± 0.26 µM"
"NC1=N[C@H](O)[C@H]2[C@H]3O[C@]4(O)O[C@@H]([C@@H](O)[C@@]2(N1)[C@@H]4O)[C@]3(O)CO [TTX, tetrodotoxin]",–,–,–,–,–,–,"amplitude and frequency of mIPSCs, WT versus KO [2]: the amplitude and frequency of mIPSCs became indistinguishable between the two groups"
CN1CCc2cc3c(cc2[C@H]1[C@@H]1OC(=O)c2c1ccc1c2OCO1)OCO3 [bicuculline],–,–,–,–,–,–,"elimination of IPSC events ([2]; 10 μM, holding −60 mV): eliminated all the events; difference in PN firing rates between WT and KO [3]: the differences in PN firing rates were abolished"
CC[C@H](C)[C@H](NC(=O)[C@@H](NC(=O)[C@H](CO)NC(=O)[C@H](C)NC(=O)[C@H](CO)NC(=O)[C@H](CCCNC(=N)N)NC(=O)[C@H](CO)NC(=O)[C@H](CCCCN)NC(=O)[C@H](CCCCN)NC(=O)[C@H](CC(C)C)NC(=O)[C@H](CC(=O)O)NC(=O)[C@@H]1CCCN1C(=O)[C@H](CO)NC(=O)[C@H](COP(=O)(O)O)NC(=O)[C@@H]1CCCN1C(=O)[C@@H](NC(=O)[C@H](CCCCN)NC(=O)[C@@H]1CCCN1)[C@@H](C)CC)[C@@H](C)O)C(=O)N[C@@H](CO)C(=O)N[C@@H](CCCCN)C(=O)N[C@@H](CO)C(=O)N[C@@H](CC(=O)O)C(=O)O [pS440] (H-PKIP[pS]SPDLKKSRSASTISKSD-OH; N-terminus and C-terminus assumed),significant spectral changes; also recorded: phosphorylation-mediated interaction,with cooperativity; also recorded: binds dimeric FMRP in a co-operative mechanism,11.6,92.8,2.3,16.4,"enhancement of binding affinity of second ligand by binding of the first ([1]; model D2c): ~ 80 fold; reduced χ2 of fit, model D2c ([1]; model D2c): 0.16; χ2 of fit, model D2c ([1]; model D2c): 0.99"
CC[C@H](C)[C@H](NC(=O)[C@@H](NC(=O)[C@H](CO)NC(=O)[C@H](C)NC(=O)[C@H](CO)NC(=O)[C@H](CCCNC(=N)N)NC(=O)[C@H](CO)NC(=O)[C@H](CCCCN)NC(=O)[C@H](CCCCN)NC(=O)[C@H](CC(C)C)NC(=O)[C@H](CC(=O)O)NC(=O)[C@@H]1CCCN1C(=O)[C@H](COP(=O)(O)O)NC(=O)[C@H](CO)NC(=O)[C@@H]1CCCN1C(=O)[C@@H](NC(=O)[C@H](CCCCN)NC(=O)[C@@H]1CCCN1)[C@@H](C)CC)[C@@H](C)O)C(=O)N[C@@H](CO)C(=O)N[C@@H](CCCCN)C(=O)N[C@@H](CO)C(=O)N[C@@H](CC(=O)O)C(=O)O [pS441] (H-PKIPS[pS]PDLKKSRSASTISKSD-OH; N-terminus and C-terminus assumed),significant spectral changes; also recorded: phosphorylation-mediated interaction,without cooperativity; also recorded: did not produce co-operative binding effects,10,106,11,107,binding affinity relative to the other phospho-peptides ([1]; FMRP dimer models): did bind with similar affinities; fit to D2c model ([1]; model D2c): could not be fitted to the D2c model; KD tighter than the KD1 of pS440 ([1]; models D1 and D2i versus KD1 of pS440 (D2c)): ~ 5 fold; KD weaker than the KD2 of pS440 ([1]; models D1 and D2i versus KD2 of pS440 (D2c)): ~ 15 fold
